The text below walks through data of patent publication US20070293486A1, “Alpha-Keto Carbonyl Calpain Inhibitors” (SANTHERA PHARMACEUTICALS (SCHWEIZ) AG, priority 2004, published 2007).

Data set [1] has as its target T1, human μ-calpain (Homo sapiens, UniProt P07384).
T1 construct: purchased Calbiochem
T1 sequence (P07384 1-714): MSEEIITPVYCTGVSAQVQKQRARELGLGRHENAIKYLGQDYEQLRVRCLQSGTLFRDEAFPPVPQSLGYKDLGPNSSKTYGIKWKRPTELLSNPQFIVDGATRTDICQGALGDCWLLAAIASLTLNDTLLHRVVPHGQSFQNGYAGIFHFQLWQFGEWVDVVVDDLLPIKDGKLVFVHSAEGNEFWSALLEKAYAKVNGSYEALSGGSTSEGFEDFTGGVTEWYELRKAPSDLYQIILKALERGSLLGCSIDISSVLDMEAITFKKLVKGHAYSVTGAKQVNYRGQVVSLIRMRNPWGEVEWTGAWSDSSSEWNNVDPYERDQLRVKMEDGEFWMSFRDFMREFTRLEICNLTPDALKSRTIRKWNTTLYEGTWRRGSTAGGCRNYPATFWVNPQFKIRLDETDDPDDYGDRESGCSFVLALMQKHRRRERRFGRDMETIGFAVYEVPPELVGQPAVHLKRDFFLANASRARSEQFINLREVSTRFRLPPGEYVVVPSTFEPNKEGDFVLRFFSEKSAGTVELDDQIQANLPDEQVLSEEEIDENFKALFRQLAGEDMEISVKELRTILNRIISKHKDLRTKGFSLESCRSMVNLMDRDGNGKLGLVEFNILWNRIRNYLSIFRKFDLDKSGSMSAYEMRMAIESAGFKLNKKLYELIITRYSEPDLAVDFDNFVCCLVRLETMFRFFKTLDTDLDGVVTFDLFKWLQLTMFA
T1 sequence (P04632 1-268 partner): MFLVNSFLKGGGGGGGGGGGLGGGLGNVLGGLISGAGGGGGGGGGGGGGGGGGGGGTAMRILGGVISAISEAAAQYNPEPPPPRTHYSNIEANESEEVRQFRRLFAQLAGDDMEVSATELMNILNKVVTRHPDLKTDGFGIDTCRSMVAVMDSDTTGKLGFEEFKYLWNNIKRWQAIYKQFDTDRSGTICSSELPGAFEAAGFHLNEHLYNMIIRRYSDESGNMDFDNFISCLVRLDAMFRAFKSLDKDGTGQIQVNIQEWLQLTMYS
In words: Enzymatic Calpain Inhibition Assay. In kind it is biochemical. The following applies: enzymatic calpain I inhibition; read-out: Calp I IC50. How it is done: The Ki value was also determined in some cases. These criteria were used to measure the inhibitory effect of the compounds (I) on calpain I, calpain II and cathepsin B.
The inhibitory properties of calpain inhibitors are tested in 100 μl of a buffer containing 100 mM imidazole pH 7.5, 5 mM L-Cystein-HCl, 5 mM CaCl2, 250 μM of the calpain fluorogenic substrate Suc-Leu-Tyr-AMC (Sigma) (Sasaki et al., J. Biol. Chem., 1984, 259, 12489-12949) dissolved in 2.5 μl DMSO and 0.5 μg of human μ-calpain (Calbiochem). The inhibitors dissolved in 1 μl DMSO are added to the reaction buffer. The fluorescence of the cleavage product 7-amino-4-methylcoumarin (AMC) is followed in a SPECTRAmax GEMINI XS (Molecular Device) fluorimeter at λex=360 nm and λem=440 nm at 30° C. during 30 min at intervals of 30 sec in 96-well plates (Greiner). The initial reaction velocity at different inhibitor concentrations is plotted against the inhibitor concentration and the IC50 values determined graphically.

In data set [2] the test system is cellular calpains in C2C12 myoblasts. In words: Calpain Inhibition Assay in C2C12 Myoblasts. The following applies: read-out: Calp I IC50 Myoblast. In kind it is cell-based. How it is done:
This assay is aimed at monitoring the ability of the substance to inhibit cellular calpains. C2C12 myoblasts are grown in 96-well plates in growth medium (DMEM, 20% foetal calf serum) until they reach confluency. The growth medium is then replaced by fusion medium (DMEM, 5% horse serum). 24 hours later the fusion medium is replaced by fusion medium containing the test substances dissolved in 1 μl DMSO. After 2 hours of incubation at 37° C. the cells are loaded with the calpain fluorogenic substrate Suc-Leu-Tyr-AMC at 400 μM in 50 μl of a reaction buffer containing 135 mM NaCl; 5 mM KCl; 4 mM CaCl2; 1 mM MgCl2; 10 mM Glucose; 10 mM HEPES pH 7.25 for 20 min at room temperature. The calcium influx, necessary to activate the cellular calpains, is evoked by the addition of 50 μl reaction buffer containing 20 μM of the calcium ionophore Br-A-23187 (Molecular Probes). The fluorescence of the cleavage product AMC is measured as described above during 60 min at 37° C. at intervals of 1 min. The IC50 values are determined as described above. Comparison of the IC50 determined in the enzymatic calpain inhibition assay to the IC50 determined in the C2C12 myoblasts calpain inhibition assay, allows to evaluate the cellular uptake or the membrane permeability of the substance.

The target of data set [3] is T2, 20S Proteasome (Oryctolagus cuniculus, UniProt G1T4Q9).
T2 sequence (G1T4Q9 1-263): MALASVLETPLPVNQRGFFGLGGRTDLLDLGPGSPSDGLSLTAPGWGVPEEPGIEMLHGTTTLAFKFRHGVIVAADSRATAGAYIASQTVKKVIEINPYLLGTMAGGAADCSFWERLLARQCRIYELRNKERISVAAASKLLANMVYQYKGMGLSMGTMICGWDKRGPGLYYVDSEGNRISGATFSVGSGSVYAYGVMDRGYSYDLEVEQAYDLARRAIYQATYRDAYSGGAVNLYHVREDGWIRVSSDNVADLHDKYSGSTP
Description: 20S Proteasome Assay. In kind it is biochemical. The settings on record: Rabbit, read-out: 20S Prot IC50. How it is done: 25 μl of a reaction buffer containing 400 μM of the fluorogenic substrate Suc-Leu-Leu-Val-Tyr-AMC (Bachem) are dispensed per well of a white microtiter plate. Test compounds dissolved in 0.5 μl DMSO are added. To start the reaction; 25 μl of reaction buffer containing 35 ng of enzyme (20S Proteasome, Rabbit, Calbiochem) are added. The increase in fluorescence (excitation at 360 nm; emission at 440 nm) is measured over 30 min at 30° C. at 30″. The IC50's are then determined from the slopes.

Data set [4] concerns utrophin protein levels in human DMD myotubes. In words: Utrophin Expression Assay in Human Myotubes. In kind it is cell-based. The following applies: 50 nM test compound. How it is done: Utrophin induction was determined by a method which was similar to a method of 1. Courdier-Fruh et al., Neuromuscular Disord., 2002, 12, S95-S104. Primary human muscle cell cultures were prepared from muscle biopsies taken during orthopedic surgery from Duchenne patients (provided by the Association Francaise contre les Myopathies). Cultures were prepared and maintained according to standard protocols. Induction of utrophin expression in human DMD myotubes was assayed at 50 nM or 500 nM of test compound added in differentiation medium. Normalized utrophin protein levels are determined after 56 d of incubation by cell-based ELISA with a mouse monoclonal antibody to the aminoterminal portion of utrophin (NCL-DRP2, Novocastra Laboratories). For calibration, the cell density and differentiation was determined by absorbance measurements of the total dehydrogenase enzyme activity in each well using the calorimetric CellTiter 96®AQ One Solution Reagent Proliferation Assay (Promega) according to the manufacturer's recommendation. Subsequently, cells were fixed, washed, permeabilized with 0.5% (v/v) Triton X-100 and unspecific antibody binding-sites blocked by standard procedures. Utrophin protein levels were determined immunologically with utrophin-specific primary antibody and with an appropriate peroxidase-coupled secondary antibody (Jackson ImmunoResearch Laboratories) using QuantaBlu™ Fluorogenic Peroxidase Substrate Kit (Pierce) for detection. Fluorescence measurements were carried out with a multilabel counter (Wallac) at λex=355 nm and at λem=460 nm. The primary readout of this signal is presented in arbitrary units. For calibration, the arbitrary units representing the relative utrophin protein content of each well was divided by the corresponding cell-titer absorbance value to correct for cell density. For comparison between experiments, the cell-titer corrected readout for utrophin protein content in each well was expressed in percent of solvent treated control cultures (set to 100%), i.e. data are % utrophin protein levels compared to DMSO solvent (N=4).

Data set [5] has as its system experimental muscular dystrophy in hamster. The following applies: Journal of Pharmacobiodynamics, 1987, 10, 678; cited from earlier work.

The compound `CCNC(=O)C(=O)C(Cc1ccc(OC)cc1)NC(=O)C(NC(=O)C(Cc1csc2ccccc12)NC(=O)CCCCC1CCS[S+]1[O-])C(C)C` (stereo not shown) [Example 606] gave a melting point of 190 to 192 °C. The IC50 in data set [1] stood at 16 nM. For the same compound, in data set [2], the IC50 amounted to 28 nM. In addition, the IC50 in data set [3] was found to be 10 nM. The “UTR Induction @50 nM” value in data set [4] was 151%.
Take `CCOC(=O)[C@H]1O[C@@H]1C(=O)N[C@@H](CC(C)C)C(=O)NCCC(C)C` [Example E-64-d]: in data set [5], the “life-prolonging effect in experimental muscular dystrophy” value is “life-prolonging effect”.
`CCNC(=O)C(=O)[C@H](Cc1ccc(Cl)cc1)NC(=O)[C@@H](NC(=O)[C@H](Cc1ccccc1)NC(=O)CCCCC1CCSS1)C(C)C` (stereo partly shown) [Example 1]: the IC50 is 45 nM in data set [1] and 200 nM in data set [2].
`CCNC(=O)C(=O)C(Cc1ccccc1)NC(=O)C(NC(=O)C(Cc1cccc2ccccc12)NC(=O)CCCCC1CCSS1)C(C)C` (stereo not shown) [Example 735] showed a melting point of 220 °C. Also, in data set [1], the IC50 is 35 nM. For the same compound, the IC50 in data set [2] turned out to be 20 nM. Further, the IC50 in data set [3] worked out at 27 nM. The “UTR Induction @50 nM” value in data set [4] came to 134%.

Broadly, the IC50 is the concentration at which inhibition is half-maximal. Broadly, the melting point is the temperature of the solid-liquid transition.
